PMC4955774 (Bioorganic & medicinal chemistry, 2016)
≈ marks a conversion by molar mass, not a printed value. Marks after values point to notes of the source that are not given here.

Columns and labels:
[1] = test system: C. albicans ATCC 64124 (strain B); test: Antifungal time-kill studies; type: cell-based, Candida albicans
[2] = test system: 13 fungal strains (yeast and filamentous fungi); test: In vitro antifungal MIC assay, summary over the whole panel; type: cell-based, Candida and Aspergillus strains; conditions: summary statement over the 13 strains
[3] = test system: C. albicans ATCC MYA-1003(R); test: In vitro antifungal MIC assay, strain G; type: cell-based; conditions: Candida albicans, read-out: MIC (MIC-0)
[4] = test system: C. albicans ATCC MYA-1237(R); test: In vitro antifungal MIC assay, strain F; type: cell-based; conditions: Candida albicans, read-out: MIC (MIC-0)
[5] = test system: C. albicans ATCC MYA-2876(S); test: In vitro antifungal MIC assay, strain C; type: cell-based; conditions: Candida albicans, read-out: MIC (MIC-0)
[6] = test system: C. albicans ATCC MYA-2310(S); test: In vitro antifungal MIC assay, strain E; type: cell-based; conditions: Candida albicans, read-out: MIC (MIC-0)
[7] = test system: C. albicans ATCC 10231; test: In vitro antifungal MIC assay, strain A; type: cell-based; conditions: Candida albicans, ATCC10231, read-out: MIC (MIC-0)
[8] = In vitro cytotoxicity assay, BEAS-2B; type: cell-based, mammalian; conditions: human
[9] = test system: C. albicans ATCC 10231 (strain A); test: ROS assay with DCFH-DA dye; type: cell-based, Candida albicans; conditions: 1 h at 35 °C
[10] = In vitro cytotoxicity assay, A549; type: cell-based, mammalian; conditions: human
[11] = test system: C. albicans ATCC MYA-2310(S); conditions: strain E; MIC-2 for azoles; previously reported; cited from earlier work
[12] = test system: C. albicans ATCC MYA-2876(S); conditions: strain C; MIC-2 for azoles; previously reported; cited from earlier work
[13] = test system: C. albicans ATCC MYA-1237(R); conditions: strain F; MIC-2 for azoles; previously reported; cited from earlier work
[14] = test system: C. albicans ATCC 90819(R); conditions: strain D; MIC-2 for azoles; previously reported; cited from earlier work
[15] = test system: Aspergillus nidulans ATCC 38163; conditions: strain L, filamentous fungus, previously reported; cited from earlier work
[16] = test system: C. albicans ATCC 10231; conditions: strain A; MIC-2 for azoles; previously reported; cited from earlier work
[17] = test system: C. albicans ATCC 64124; conditions: strain B; MIC-2 for azoles; previously reported; cited from earlier work
[18] = test system: C. albicans ATCC MYA-1003(R); conditions: strain G; MIC-2 for azoles; previously reported; cited from earlier work
[19] = 1× and 2× respective MIC values

With `C[C@@H]1[C@H](O)[C@@H](C)/C=C/C=C/C=C/C=C/C=C/C=C/C=C/[C@H](O[C@@H]2O[C@H](C)[C@@H](O)[C@H](N)[C@@H]2O)C[C@@H]2O[C@](O)(C[C@@H](O)C[C@@H](O)[C@H](O)CC[C@@H](O)C[C@@H](O)CC(=O)O[C@H]1C)C[C@H](O)[C@H]2C(=O)O` [AmB, amphotericin B] the “Nature of activity in time-kill assay” value ([1]; 1× MIC) was “fungicidal” and the “Time after which fungal cells were completely killed” value ([1]; 1× MIC) was 9 h.

For `C#CCOc1ccc(-c2nc3ccc(N4CCN(C)CC4)cc3[nH]2)cc1` [Compound 1], the “MIC / antifungal activity over all tested fungal strains” value [2] was at least 31.2 µg/mL.

With `CN1CCN(c2ccc3[nH]c(-c4ccc5[nH]c(-c6ccc(O)cc6)nc5c4)nc3c2)CC1` [Compound 2] the MIC [3] was 7.8 to 15.6 µg/mL (≈ 18.4 to 36.7 µM), the MIC [4] was 3.9 to 7.8 µg/mL (≈ 9.19 to 18.4 µM) and the MIC [5] was 7.8 to 15.6 µg/mL (≈ 18.4 to 36.7 µM). The “Nature of activity in time-kill assay” value ([1]; 1× MIC) was “fungistatic”, the “Nature of activity in time-kill assay” value ([1]; 2× MIC) was “fungicidal” and the MIC [6] was 3.9 to 7.8 µg/mL (≈ 9.19 to 18.4 µM). The MIC [7] was 7.8 to 15.6 µg/mL (≈ 18.4 to 36.7 µM), the IC50 at 24 h [8] was at least 31.2 µg/mL and the “Intracellular ROS production” value [9, 19] was “significant amount of ROS production”. It also gave an IC50 at 24 h [10] of at least 31.2 µg/mL.

For `CCCCCCCCCCCCN1CCN(c2ccc3nc(-c4ccc5nc(-c6ccc(O)cc6)[nH]c5c4)[nH]c3c2)CC1` [Compound 4], the “MIC / antifungal activity over all tested fungal strains” value [2] was “no activity” and the “Intracellular ROS production” value ([9]; 8 and 16 µg/mL) was “no ROS accumulation”.

In the case of `CCOc1ccc(-c2nc3cc(-c4nc5cc(N6CCN(C)CC6)ccc5[nH]4)ccc3[nH]2)cc1` [Compound 9], the “Nature of activity in time-kill assay” value ([1]; 1× MIC) is reported as “fungistatic”, the “Nature of activity in time-kill assay” value ([1]; 2× MIC) is reported as “fungicidal” and the “Intracellular ROS production” value [9, 19] is reported as “significant amount of ROS production”.

With `CCCN1CCN(c2ccc3nc(-c4ccc5nc(-c6ccc(OCC)cc6)[nH]c5c4)[nH]c3c2)CC1` [Compound 11] the “MIC / antifungal activity over all tested fungal strains” value [2] was “inactive”.

For `CCCCCN1CCN(c2ccc3nc(-c4ccc5nc(-c6ccc(OCC)cc6)[nH]c5c4)[nH]c3c2)CC1` [Compound 12], the “MIC / antifungal activity over all tested fungal strains” value [2] was “inactive”.

With `CCCCCCCCCCCCOc1ccc(-c2nc3ccc(-c4nc5ccc(N6CCN(C)CC6)cc5[nH]4)cc3[nH]2)cc1` [Compound 13] the “MIC / antifungal activity over all tested fungal strains” value [2] was “complete loss of antifungal activity”.

Molecule `C#CCOc1ccc(-c2nc3ccc(-c4nc5ccc(N6CCN(C)CC6)cc5[nH]4)cc3[nH]2)cc1` [Compound 14] has an MIC [7] of 7.8 to 31.2 µg/mL (≈ 16.9 to 67.5 µM).

For `C#CCOc1ccc(-c2nc3ccc(-c4nc5ccc(-c6nc7ccc(N8CCN(C)CC8)cc7[nH]6)cc5[nH]4)cc3[nH]2)cc1` [Compound 18], the “MIC / antifungal activity over all tested fungal strains” value [2] was at least 31.2 µg/mL.

For `OC(Cn1cncn1)(Cn1cncn1)c1ccc(F)cc1F` [FLC, fluconazole], the “MIC (MIC-2)” value [11] is given as >125 ^a µg/mL, the “MIC (MIC-2)” value [12] is given as 15.6 ^a µg/mL and the “MIC (MIC-2)” value [13] is given as 62.5 ^a µg/mL. For the same molecule, the “MIC (MIC-2)” value [14] was >125 ^a µg/mL, the “MIC (MIC-0)” value [15] was 62.5 ^a µg/mL and the “MIC (MIC-2)” value [16] was 62.5 ^a µg/mL. The “MIC (MIC-2)” value [17] was >125 ^a µg/mL and the “MIC (MIC-2)” value [18] was 62.5 ^a µg/mL.

For `CCC(C)n1ncn(-c2ccc(N3CCN(c4ccc(OCC5COC(Cn6cncn6)(c6ccc(Cl)cc6Cl)O5)cc4)CC3)cc2)c1=O` (centres unmarked) [ITC, itraconazole], the “MIC (MIC-2)” value [11] is given as 31.2 ^a µg/mL, the “MIC (MIC-2)” value [12] is given as 7.8 ^a µg/mL and the “MIC (MIC-2)” value [13] is given as 31.2 ^a µg/mL. The “MIC (MIC-2)” value [14] was 31.2 ^a µg/mL, the “MIC (MIC-0)” value [15] was 0.195 ^a µg/mL and the “MIC (MIC-2)” value [16] was 0.5 ^a µg/mL. For the same molecule, the “MIC (MIC-2)” value [17] was >62.5 ^a µg/mL and the “MIC (MIC-2)” value [18] was 31.2 ^a µg/mL.

For `CC[C@@H]([C@H](C)O)n1ncn(-c2ccc(N3CCN(c4ccc(OC[C@@H]5CO[C@@](Cn6cncn6)(c6ccc(F)cc6F)C5)cc4)CC3)cc2)c1=O` [POS, posaconazole], the “MIC (MIC-2)” value [11] is listed as 31.2 ^a µg/mL, the “MIC (MIC-2)” value [12] is listed as 7.8 ^a µg/mL and the “MIC (MIC-2)” value [13] is listed as 15.6 ^a µg/mL. For the same molecule, the “MIC (MIC-2)” value [14] was 31.2 ^a µg/mL, the “MIC (MIC-0)” value [15] was 0.195 ^a µg/mL and the “MIC (MIC-2)” value [16] was 0.5 ^a µg/mL. The “MIC (MIC-2)” value [17] was >62.5 ^a µg/mL and the “MIC (MIC-2)” value [18] was 15.6 ^a µg/mL.
